pIC50: −log10 of the molar value. Values joined by “and” are separate entries in the source; they are usually repeats but may differ in a detail not shown here. Identical values can stand only once.
Tests used:
Type in all cases: biochemical
EcThrRS_A316N = biological target: T1, EcThrRS_A316N (Escherichia coli, UniProt P0A8M3, A316N); assay: ATP hydrolysis assay; conditions: for ATP hydrolysis activity, inhibitory curve data point: OB, replicates, sheet Fig.S4b
T1 construct: The E. coli ThrRS (residues 242-642, Supplementary Note 1) wild type; 6xHis (C); made in house; host or cells: E. coli BL21 (DE3)
Method: (§1) 200 nM EcThrRS wide type and mutants, ObaO and ObaO_S464G mutant were incubated with serially diluted OB (0 to 10 μM for EcThrRS, 0 to 40 μM for ObaO) in a buffer containing 25 mM HEPES pH 7.5, 50 mM NaCl, 40 mM MgCl2, 30 mM KCl, 0.01 mg/mL bovine serum albumin (BSA), and 0.004% Tween-20 at 37 °C for 4 h and then mixed 1:1 with a substrate mixture containing 4 μM ATP, 40 μM L-threonine, 25 mM HEPES pH 7.5, 50 mM NaCl, 40 mM MgCl2, 30 mM KCl, 0.01 mg/mL BSA, and 0.004% Tween-20. The ATP hydrolysis reaction was performed at 37 °C for 4 h.
(§2) After incubation, the detection solution from the Kinase-Glo® luminescent kit (Promega, USA) was added to the reaction system at a 1:1 ratio, and the mixture was gently shaken for 10 min. The chemiluminescence signal was measured using a microplate reader (Tecan, USA). All experiments were performed in four replicates. The data were processed using GraphPad Prism 8 software.

EcThrRS_G463S = biological target: T2, EcThrRS_G463S (Escherichia coli, UniProt P0A8M3, G463S); assay: ATP hydrolysis assay; conditions: for ATP hydrolysis activity, inhibitory curve data point: OB, replicates, sheet Fig.2b
T2 construct: The E. coli ThrRS (residues 242-642, Supplementary Note 1) wild type; 6xHis (C); made in house; host or cells: E. coli BL21 (DE3)
Method: as §1, §2

EcThrRS_G463A = biological target: T3, EcThrRS_G463A (Escherichia coli, UniProt P0A8M3, G463A); assay: ATP hydrolysis assay; conditions: ATP hydrolysis activity
T3 construct: The E. coli ThrRS (residues 242-642, Supplementary Note 1) wild type; 6xHis (C); made in house; host or cells: E. coli BL21 (DE3)
Method: as §1, §2

[1] = test system: in vitro translation system of Kluyveromyces marxianus; conditions: K. marxianus extract, rebuttal letter
From the text: lactone produced by Pseudomonas fluorescens. Taxonomy, fermentation and biological properties. The Journal of antibiotics 37, 802-803 (1984).
28 Kumar, P. et al. l-Threonine Transaldolase Activity Is Enabled by a Persistent Catalytic Intermediate. ACS chemical biology 16, 86-95 (2021).
29 Schaffer, J. E., Reck, M. R., Prasad, N. K. & Wencewicz, T. A. beta-Lactone formation during product release from a nonribosomal peptide synthetase. Nat Chem Biol 13, […]
30 Scott, T. A., Heine, D., Qin, Z. & Wilkinson, B. An L-threonine transaldolase is required for L-threo-beta-hydroxy-alpha-amino acid assembly during obafluorin biosynthesis. Nature communications 8, 15935 (2017).
31 Kreitler, D. F., Gemmell, E. M., Schaffer, J. E., Wencewicz, T. A. & Gulick, A. M. The structural basis of N-acyl-alpha-amino-beta-lactone formation catalyzed by a nonribosomal peptide synthetase. Nature communications 10, 3432 (2019).
32 Jones, M. A. et al. Discovery of L-threonine transaldolases for enhanced biosynthesis of beta-hydroxylated amino acids. Communications biology 6, 929 (2023).
33 Batey, S. F. D. et al. The catechol moiety of obafluorin is essential for antibacterial
34 Qiao, H. et al. Tyrosine-targeted covalent inhibition of a tRNA synthetase aided by zinc ion. Communications biology 6, 107 (2023).
Whether OB has inhibitory activity against eukaryotic ThrRS is also a great question. […]

T2 sequence (P0A8M3 242-642 G463S): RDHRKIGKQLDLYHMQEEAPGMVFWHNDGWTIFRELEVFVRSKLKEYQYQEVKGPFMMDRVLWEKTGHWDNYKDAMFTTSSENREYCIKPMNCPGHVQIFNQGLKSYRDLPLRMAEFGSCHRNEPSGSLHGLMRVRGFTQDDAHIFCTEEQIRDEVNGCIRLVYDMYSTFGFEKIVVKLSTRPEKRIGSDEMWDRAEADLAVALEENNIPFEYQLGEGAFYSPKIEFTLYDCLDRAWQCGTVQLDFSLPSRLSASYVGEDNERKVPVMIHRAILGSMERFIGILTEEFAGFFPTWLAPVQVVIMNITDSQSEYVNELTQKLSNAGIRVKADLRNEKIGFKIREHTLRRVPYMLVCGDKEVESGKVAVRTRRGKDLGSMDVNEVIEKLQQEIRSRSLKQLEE
T1 sequence (P0A8M3 242-642 A316N): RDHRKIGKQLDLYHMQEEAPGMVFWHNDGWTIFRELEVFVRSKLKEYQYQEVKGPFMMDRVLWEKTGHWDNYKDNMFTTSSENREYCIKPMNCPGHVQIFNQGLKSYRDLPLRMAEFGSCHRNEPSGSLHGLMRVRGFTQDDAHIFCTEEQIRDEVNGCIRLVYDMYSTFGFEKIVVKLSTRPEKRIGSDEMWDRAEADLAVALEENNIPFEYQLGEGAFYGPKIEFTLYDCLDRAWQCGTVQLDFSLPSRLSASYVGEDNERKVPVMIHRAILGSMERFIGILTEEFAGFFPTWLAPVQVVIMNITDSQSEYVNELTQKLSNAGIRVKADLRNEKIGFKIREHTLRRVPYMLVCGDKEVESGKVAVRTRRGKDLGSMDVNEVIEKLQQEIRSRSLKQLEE
T3 sequence (P0A8M3 242-642 G463A): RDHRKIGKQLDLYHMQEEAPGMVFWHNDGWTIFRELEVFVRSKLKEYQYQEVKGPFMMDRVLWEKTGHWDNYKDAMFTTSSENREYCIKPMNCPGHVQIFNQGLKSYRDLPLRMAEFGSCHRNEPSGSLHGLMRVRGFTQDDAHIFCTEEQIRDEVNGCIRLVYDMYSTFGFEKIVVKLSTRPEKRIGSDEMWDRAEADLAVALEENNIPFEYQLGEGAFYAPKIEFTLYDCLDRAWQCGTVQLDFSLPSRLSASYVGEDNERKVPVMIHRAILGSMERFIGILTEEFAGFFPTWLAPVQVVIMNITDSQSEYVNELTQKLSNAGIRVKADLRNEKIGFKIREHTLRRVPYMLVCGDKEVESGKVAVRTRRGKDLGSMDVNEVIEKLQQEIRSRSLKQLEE

O=C(N[C@@H]1C(=O)O[C@@H]1Cc1ccc([N+](=O)[O-])cc1)c1cccc(O)c1O [OB, Obafluorin]
pIC50 (EcThrRS_A316N; ATP hydrolysis activity): 6.07 | ATP hydrolysis activity, inhibitory curve data point (EcThrRS_A316N; Log10 Conc. 0.690, A316N): 85.962 and 86.560 and 99.695 and 84.767 | ATP hydrolysis activity, inhibitory curve data point (EcThrRS_A316N; Log10 Conc. 0.991, A316N): 88.637 and 98.163 and 100.359 and 100.821 | ATP hydrolysis activity, inhibitory curve data point (EcThrRS_A316N; Log10 Conc. 1.290, A316N): 94.677 and 95.220 and 104.669 and 107.135 | ATP hydrolysis activity, inhibitory curve data point (EcThrRS_A316N; Log10 Conc. 1.591, A316N): 79.114 and 84.617 and 87.973 and 87.592 | ATP hydrolysis activity, inhibitory curve data point (EcThrRS_A316N; Log10 Conc. 1.892, A316N): 95.097 and 93.442 and 93.401 and 99.302 | ATP hydrolysis activity, inhibitory curve data point (EcThrRS_A316N; Log10 Conc. 2.193, A316N): 78.735 and 83.708 and 90.525 and 92.235 | ATP hydrolysis activity, inhibitory curve data point (EcThrRS_A316N; Log10 Conc. 2.494, A316N): 68.683 and 74.410 and 84.890 and 82.431 | ATP hydrolysis activity, inhibitory curve data point (EcThrRS_A316N; Log10 Conc. 2.796, A316N): 50.753 and 55.935 and 67.595 and 73.554 | ATP hydrolysis activity, inhibitory curve data point (EcThrRS_A316N; Log10 Conc. 3.097, A316N): 29.054 and 40.656 and 45.720 and 53.072 | ATP hydrolysis activity, inhibitory curve data point (EcThrRS_A316N; Log10 Conc. 3.398, A316N): -3.828 and 7.860 and 7.462 and 26.771 | ATP hydrolysis activity, inhibitory curve data point (EcThrRS_A316N; Log10 Conc. 3.699, A316N): 7.311 and 15.246 and 17.984 and 36.982 | inhibition at 5 µM (EcThrRS_G463S; 5 μM OB): ~10% | inhibitory activity (EcThrRS_G463S; ATP hydrolysis activity): poor activity | ATP hydrolysis activity, inhibitory curve data point (EcThrRS_G463S; Log10 Conc. 1.279, G463S): 106.793 and 98.818 and 94.863 and 99.954 | ATP hydrolysis activity, inhibitory curve data point (EcThrRS_G463S; Log10 Conc. 1.597, G463S): 100.752 and 93.821 and 90.230 and 89.239 | ATP hydrolysis activity, inhibitory curve data point (EcThrRS_G463S; Log10 Conc. 1.892, G463S): 119.110 and 112.303 and 110.507 and 107.832 | ATP hydrolysis activity, inhibitory curve data point (EcThrRS_G463S; Log10 Conc. 2.193, G463S): 113.765 and 106.055 and 104.056 and 103.914 | ATP hydrolysis activity, inhibitory curve data point (EcThrRS_G463S; Log10 Conc. 2.495, G463S): 113.955 and 101.766 and 100.028 and 98.945 | ATP hydrolysis activity, inhibitory curve data point (EcThrRS_G463S; Log10 Conc. 2.796, G463S): 114.391 and 100.345 and 101.496 and 101.074 | ATP hydrolysis activity, inhibitory curve data point (EcThrRS_G463S; Log10 Conc. 3.097, G463S): 109.765 and 91.814 and 95.122 and 94.032 | ATP hydrolysis activity, inhibitory curve data point (EcThrRS_G463S; Log10 Conc. 3.398, G463S): 99.125 and 85.681 and 84.901 and 83.398 | ATP hydrolysis activity, inhibitory curve data point (EcThrRS_G463S; Log10 Conc. 3.699, G463S): 98.676 and 85.750 and 87.909 and 87.887 | ATP hydrolysis activity, inhibitory curve data point (EcThrRS_G463S; Log10 Conc. 4.000, G463S): 100.800 and 85.432 and 86.068 and 84.275 | inhibitory effect (EcThrRS_G463A): no inhibitory effect | pIC50 [1]: ~5.05
